According to patent US8278345B2, “Inhibitors of glutaminyl cyclase” (Probiodrug AG, priority 2006, dated 2012):
pIC50: −log10 of the molar value. Like-named read-outs stand apart in the source and are kept apart here.

Biological target: hQC (Homo sapiens, UniProt Q16769)
Test: Inhibitor assay for glutaminyl cyclase activity (fluorometric, H-Gln-βNA / H-Gln-AMC)
Assay type: biochemical
Procedure: All measurements were performed with a BioAssay Reader HTS-7000Plus for microplates (Perkin Elmer) at 30° C. QC activity was evaluated fluorometrically using H-Gln-βNA. The samples consisted of 0.2 mM fluorogenic substrate, 0.25 U pyroglutamyl aminopeptidase (Unizyme, Hørsholm, Denmark) in 0.2 M Tris/HCl, pH 8.0 containing 20 mM EDTA and an appropriately diluted aliquot of QC in a final volume of 250 μl. Excitation/emission wavelengths were 320/410 nm. The assay reactions were initiated by addition of glutaminyl cyclase. QC activity was determined from a standard curve of β-naphthylamine under assay conditions. One unit is defined as the amount of QC catalyzing the formation of 1 μmol pGlu-βNA from H-Gln-βNA per minute under the described conditions.
In a second fluorometric assay, QC activity was determined using H-Gln-AMC as substrate. Reactions were carried out at 30° C. utilizing the NOVOStar reader for microplates (BMG labtechnologies). The samples consisted of varying concentrations of the fluorogenic substrate, 0.1 U pyroglutamyl aminopeptidase (Qiagen) in 0.05 M Tris/HCl, pH 8.0 containing 5 mM EDTA and an appropriately diluted aliquot of QC in a final volume of 250 μl. Excitation/emission wavelengths were 380/460 nm. The assay reactions were initiated by addition of glutaminyl cyclase. QC activity was determined from a standard curve of 7-amino-4-methylcoumarin under assay conditions. The kinetic data were evaluated using GraFit sofware.
For inhibitor testing, the sample composition was the same as described above, except of the putative inhibitory compound added. For a rapid test of QC-inhibition, samples contained 4 mM of the respective inhibitor and a substrate concentration at 1 KM. For detailed investigations of the inhibition and determination of Ki-values, influence of the inhibitor on the auxiliary enzymes was investigated first. In every case, there was no influence on either enzyme detected, thus enabling the reliable determination of the QC inhibition. The inhibitory constant was evaluated by fitting the set of progress curves to the general equation for competitive inhibition using GraFit software.

hQC, sequence (Q16769 29-361): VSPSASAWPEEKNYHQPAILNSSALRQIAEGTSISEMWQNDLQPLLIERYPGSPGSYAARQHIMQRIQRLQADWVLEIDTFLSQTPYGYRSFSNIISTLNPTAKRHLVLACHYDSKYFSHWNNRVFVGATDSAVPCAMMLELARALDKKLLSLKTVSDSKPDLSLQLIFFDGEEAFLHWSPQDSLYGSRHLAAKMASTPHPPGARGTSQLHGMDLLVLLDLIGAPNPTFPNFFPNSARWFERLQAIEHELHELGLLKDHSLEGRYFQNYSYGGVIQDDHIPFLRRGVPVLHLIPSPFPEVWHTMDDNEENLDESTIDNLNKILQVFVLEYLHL

Compound | pIC50 (read-out: IC50) | pIC50 (compound from preparative synthesis, purified, read-out: IC50 hQC)
Cc1ccc2occ(C3C(C(=O)C(C)(C)C)=C(O)C(=O)N3c3ccc4[nH]cnc4c3)c(=O)c2c1 (stereo not shown) [Compound 382, 1-(1H-Benzoimidazol-5-yl)-4-(2,2-dimethyl-propionyl)-3-hydroxy-5-(6-methyl-4-oxo-4H-chromen-3-yl)-1,5-dihydro-pyrrol-2-one] | 5.40 | 
CC1=C(O)C(=O)N(c2ccc3[nH]cnc3c2)C1c1c(F)ccc(Cl)c1F (stereo not shown) [Compound 412, 1-(1H-Benzoimidazol-5-yl)-5-(3-chloro-2,6-difluoro-phenyl)-3-hydroxy-4-methyl-1,5-dihydro-pyrrol-2-one] | 5.38 | 
CCCC1C(C)=C(O)C(=O)N1CCCn1ccnc1 (stereo not shown) [Compound 22, 3-Hydroxy-1-(3-imidazol-1-yl-propyl)-4-methyl-5-propyl-1,5-dihydro-pyrrol-2-one] | 5.31 | 
CC(C)C1=C(O)C(=O)N(CCCn2ccnc2)C1c1cccs1 (stereo not shown) [Compound 71, 3-Hydroxy-1-(3-imidazol-1-yl-propyl)-4-isopropyl-5-thiophen-2-yl-1,5-dihydro-pyrrol-2-one] | 5.40 | 
CC(=O)C1=C(O)C(=O)N(c2ccc3[nH]cnc3c2)C1C1CCOC1 (stereo not shown) [Compound 314, 4-Acetyl-1-(1H-benzoimidazol-5-yl)-3-hydroxy-5-(tetrahydro-furan-3-yl)-1,5-dihydro-pyrrol-2-one] | 5.32 | 
CC1=C(O)C(=O)N(CCCn2ccnc2)C1c1ccc(C)o1 (stereo not shown) [Compound 25, 3-Hydroxy-1-(3-imidazol-1-yl-propyl)-4-methyl-5-(5-methyl-furan-2-yl)-1,5-dihydro-pyrrol-2-one] | 5.31 | 
CCCC(=O)C1=C(O)C(=O)N(c2ccc3[nH]cnc3c2)C1CCC(=O)O (stereo not shown) [Compound 324, 3-[1-(1H-Benzoimidazol-5-yl)-3-butyryl-4-hydroxy-5-oxo-2,5-dihydro-1H-pyrrol-2-yl]-propionic acid] | 5.18 | 
O=C1C(O)=C(c2ccc(O)cc2)C(c2coc3ccccc3c2=O)N1c1ccc2[nH]cnc2c1 (stereo not shown) [Compound 286, 1-(1H-Benzoimidazol-5-yl)-3-hydroxy-4-(4-hydroxy-phenyl)-5-(4-oxo-4H-chromen-3-yl)-1,5-dihydro-pyrrol-2-one] | 5.45 | 
Cc1ccc2c(C3C(C(=O)C4CC4)=C(O)C(=O)N3c3ccc4[nH]cnc4c3)c[nH]c2c1 (stereo not shown) [Compound 453, 1-(1H-Benzoimidazol-5-yl)-4-cyclopropanecarbonyl-3-hydroxy-5-(6-methyl-1H-indol-3-yl)-1,5-dihydro-pyrrol-2-one] | 5.13 | 
O=C(C1=C(O)C(=O)N(c2ccc3[nH]cnc3c2)C1c1cccc2cccnc12)C1CC1 (stereo not shown) [Compound 443, 1-(1H-Benzoimidazol-5-yl)-4-cyclopropanecarbonyl-3-hydroxy-5-quinolin-8-yl-1,5-dihydro-pyrrol-2-one] | 5.33 | 
CC(C)(C)C(=O)C1=C(O)C(=O)N(c2ccc3[nH]cnc3c2)C1c1cc(F)cc(F)c1F (stereo not shown) [Compound 341, 1-(1H-Benzoimidazol-5-yl)-4-(2,2-dimethyl-propionyl)-3-hydroxy-5-(2,3,5-trifluoro-phenyl)-1,5-dihydro-pyrrol-2-one] | 5.31 | 
CC1=C(O)C(=O)N(c2ccc3[nH]cnc3c2)C1c1ccc(Cl)c(C(F)(F)F)c1 (stereo not shown) [Compound 460, 1-(1H-Benzoimidazol-5-yl)-5-(4-chloro-3-trifluoromethyl-phenyl)-3-hydroxy-4-methyl-1,5-dihydro-pyrrol-2-one] | 5.01 | 

The next compounds have a higher pIC50 (read-out: IC50) than those just listed; values first:

pIC50 (read-out: IC50) | pIC50 (compound from preparative synthesis, purified, read-out: IC50 hQC) | Compound
6.12 |  | O=C(O)c1ccc(C2C(C(=O)C3CCCCC3)=C(O)C(=O)N2c2ccc3[nH]cnc3c2)o1 (stereo not shown) [Compound 374, 5-[1-(1H-Benzoimidazol-5-yl)-3-cyclohexanecarbonyl-4-hydroxy-5-oxo-2,5-dihydro-1H-pyrrol-2-yl]-furan-2-carboxylic acid]
7.40 |  | CCC1=C(O)C(=O)N(CCCn2ccnc2)C1c1ccc2[nH]ccc2c1 (stereo not shown) [Compound 228, 4-Ethyl-3-hydroxy-1-(3-imidazol-1-yl-propyl)-5-(1H-indol-5-yl)-1,5-dihydro-pyrrol-2-one]
7.40 |  | O=C1C(O)=C(c2c[nH]c3ccccc23)C(c2ccc3[nH]ccc3c2)N1CCCn1ccnc1 (stereo not shown) [Compound 120, 3-Hydroxy-1-(3-imidazol-1-yl-propyl)-5-(1H-indol-5-yl)-4-(1H-indol-3-yl)-1,5-dihydro-pyrrol-2-one]
6.40 |  | O=C1C(O)=C(c2ccc(O)cc2)C(c2ccccn2)N1CCCn1ccnc1 (stereo not shown) [Compound 171, 3-Hydroxy-4-(4-hydroxy-phenyl)-1-(3-imidazol-1-yl-propyl)-5-pyridin-2-yl-1,5-dihydro-pyrrol-2-one]
5.66 |  | CC(C)C1=C(O)C(=O)N(CCCn2ccnc2)C1C1CCC=CO1 (stereo not shown) [Compound 66, 5-(3,4-Dihydro-2H-pyran-2-yl)-3-hydroxy-1-(3-imidazol-1-yl-propyl)-4-isopropyl-1,5-dihydro-pyrrol-2-one]
5.66 |  | CCCCCC1=C(O)C(=O)N(CCCn2ccnc2)C1c1ncc[nH]1 (stereo not shown) [Compound 205, 3-Hydroxy-5-(1H-imidazol-2-yl)-1-(3-imidazol-1-yl-propyl)-4-pentyl-1,5-dihydro-pyrrol-2-one]
5.66 |  | CCCC1C(CC)=C(O)C(=O)N1CCCn1ccnc1 (stereo not shown) [Compound 223, 4-Ethyl-3-hydroxy-1-(3-imidazol-1-yl-propyl)-5-propyl-1,5-dihydro-pyrrol-2-one]
5.89 |  | CC(C)C1=C(O)C(=O)N(c2ccc3[nH]cnc3c2)C1c1cc(F)cc(F)c1F (stereo not shown) [Compound 253, 1-(1H-Benzoimidazol-5-yl)-3-hydroxy-4-isopropyl-5-(2,3,5-trifluoro-phenyl)-1,5-dihydro-pyrrol-2-one]
6.24 |  | O=C1C(O)=C(c2ccccc2)C(c2c(F)ccc(Cl)c2F)N1c1ccc2[nH]cnc2c1 (stereo not shown) [Compound 339, 1-(1H-Benzoimidazol-5-yl)-5-(3-chloro-2,6-difluoro-phenyl)-3-hydroxy-4-phenyl-1,5-dihydro-pyrrol-2-one]
7.40 |  | CCCCCC1=C(O)C(=O)N(CCCn2ccnc2)C1c1ccc(CO)o1 (stereo not shown) [Compound 198, 3-Hydroxy-5-(5-hydroxymethyl-furan-2-yl)-1-(3-imidazol-1-yl-propyl)-4-pentyl-1,5-dihydro-pyrrol-2-one]
5.66 |  | CC1=C(O)C(=O)N(CCCn2ccnc2)C1C1CCC=CO1 (stereo not shown) [Compound 35, 5-(3,4-Dihydro-2H-pyran-2-yl)-3-hydroxy-1-(3-imidazol-1-yl-propyl)-4-methyl-1,5-dihydro-pyrrol-2-one]
7.40 |  | O=C1C(O)=C(c2ccc(O)cc2)C(c2cc[nH]n2)N1CCCn1ccnc1 (stereo not shown) [Compound 151, 3-Hydroxy-4-(4-hydroxy-phenyl)-1-(3-imidazol-1-yl-propyl)-5-(1H-pyrazol-3-yl)-1,5-dihydro-pyrrol-2-one]
7.40 | 6.13 | O=C1C(O)=C(c2ccccc2)C(c2ccccc2F)N1CCCn1ccnc1 (stereo not shown) [Compound 110, 5-(2-Fluoro-phenyl)-3-hydroxy-1-(3-imidazol-1-yl-propyl)-4-phenyl-1,5-dihydro-pyrrol-2-one]
6.40 |  | O=C1C(O)=C(c2ccc(O)cc2)C(CO)N1CCCn1ccnc1 (stereo not shown) [Compound 174, 3-Hydroxy-5-hydroxymethyl-4-(4-hydroxy-phenyl)-1-(3-imidazol-1-yl-propyl)-1,5-dihydro-pyrrol-2-one]
5.55 |  | CC1=C(O)C(=O)N(c2ccc3[nH]cnc3c2)C1c1ccc2cccc(O)c2n1 (stereo not shown) [Compound 319, 1-(1H-Benzoimidazol-5-yl)-3-hydroxy-5-(8-hydroxy-quinolin-2-yl)-4-methyl-1,5-dihydro-pyrrol-2-one]
